Data reported in US20100190809A1, “COMBINATION FORMULATIONS” (priority 2007, published 2010).

Test: Tablet dissolution in 0.01M HCl+1% sodium laurylsulfate, 50 rpm
Format: physicochemical
Experimental: The tablets were measured on dissolution in a medium of 0.01M HCl+1% sodium laurylsulfate (SLS), 50 rpm. The results reported in the following tables are the percentages of release drug substance. Exp 1, exp 2, etc. refer to a first, a second, etc. experiment under the same conditions.
Two coating trials were performed using the tablet core samples with a compression force of 1030 daN and 1266 daN. The coating material was polyvinyl alcohol (PVA). The film coated tablets were measured on dissolution in medium 0.01 M HCl+1% SLS, 50 rpm.

Structure (SMILES) | release out of the coated tablets compared to the cores (PVA film coated tablets) | influence of the compression force on dissolution (TMC125 compared with TMC114) | impact of the coating on the release (PVA film coated tablets)
Cc1cc(C#N)cc(C)c1Oc1nc(Nc2ccc(C#N)cc2)nc(N)c1Br [TMC125, 4-[[6-amino-5-bromo-2-[(4-cyanophenyl)amino]-4-pyrimidinyl]oxy]-3,5-dimethylbenzonitrile] | somewhat faster | more influenced | –
CC(C)CN(C[C@@H](O)[C@H](Cc1ccccc1)NC(=O)O[C@H]1CO[C@H]2OCC[C@H]21)S(=O)(=O)c1ccc(N)cc1 [TMC114, (1S,2R,3R,3aS,6aR)-{3-[(4-aminobenzenesulfonyl)isobutyl-amino]-1-benzyl-2-hydroxypropyl}carbamic acid hexahydrofuro[2,3-b]furan-3-yl ester monoethanolate] | – | – | only a minor impact
